This note sets out measurements from publication PMC12040169 (PLOS Biology, 2025).

A short description of one data set: in vitro. On the set-up: Viability of infected HeLa host cells, resazurin conversion, bulk resorufin fluorescence relative to DMSO. Conditions: human, hela cells; bulk resorufin, mean of 2.
The subject of data set [1] is T1, CTL2-GFP (C. trachomatis L2/434/Bu, GFP-expressing).
T1 construct: L2/434/Bu, GFP-expressing
The data set is described as follows: microbe, parasite or virus in culture. The settings on record: Chlamydia trachomatis, HeLa, 28.5 h; bulk GFP, mean of 2; read-out: % of control remaining. On the set-up: Intracellular C. trachomatis growth in HeLa cells, bulk GFP fluorescence relative to DMSO. The protocol:
MICs were calculated as described above.

The test system of data set [2] is T2, C. trachomatis L2/434/Bu expressing GFP (CTL2-GFP).
T2 construct: L2/434/Bu GFP intracellular growth in HeLa cells
The experiment in a line: microbe, parasite or virus in culture. Also noted: C. trachomatis total inclusion area by high-content imaging, normalised to DMSO. The settings on record: Chlamydia trachomatis, HeLa, 28.5 h; total inclusion area; read-out: % of control remaining. From the text:
We screened a library of 36,785 small molecules displaying drug-like properties and covering a wide chemical space (Fig 1A and S2A Data). In this process, we also complemented the assay described above with an imaging-based readout (Fig 1B). After measurements of bulk GFP and resorufin fluorescence, cells were fixed, stained with the DNA dye Hoechst, and imaged at a high-content imaging platform to detect chlamydial inclusions (GFP) and host cell nuclei (Hoechst). The total area and number of inclusions in individual wells and the number of nuclei then served as additional proxies for chlamydial growth and host cell viability. […] MICs were calculated as described above.

A word on the viability: it is a read-out of living cells in per cent, often relative to untreated cells. With `NC(Cc1ccccc1)CN(CC1(c2ccc(Cl)cc2)CC1)C(=O)Nc1ccc2c(c1)OCO2` (stereo not drawn) [CBK002342C], in “in vitro”, the viability at 28.5 h, 1 µM was determined as 95.3%; the viability at 28.5 h, 5 µM was 95.4%; the viability at 28.5 h, 10 µM is 93.5%. In data set [1], the activity at 1 µM was found to be 211%, the activity at 5 µM was 102% and the activity at 10 µM is 98.8%. In addition, in data set [2], the activity at 1 µM was 109%, the activity at 5 µM was determined as 43.5% and the activity at 10 µM amounted to 54%.
`Cc1cc(C(=O)Nc2ccc(S(=O)(=O)Nc3onc(C)c3C)cc2)no1` [CBK268166]: in “in vitro”, the viability at 28.5 h, 1 µM was determined as 101%; the viability at 28.5 h, 5 µM came out at 92.7%; the viability at 28.5 h, 10 µM came to 100%. In data set [1], the activity at 1 µM is 113%, the activity at 5 µM amounted to 81.5% and the activity at 10 µM worked out at 33.7%. Further, in data set [2], the activity at 1 µM was 89.9%, the activity at 5 µM was determined as 77.7% and the activity at 10 µM stood at 61.3%.
Regarding `O=C(Nc1ccc2[nH]ccc2c1)c1ccccc1Nc1cccc(C(F)(F)F)c1` [CBK149583], in the data set “in vitro”, the viability at 28.5 h, 1 µM came out at 118%; the viability at 28.5 h, 5 µM was determined as 114%; the viability at 28.5 h, 10 µM came to 112%. Moreover, in data set [1], the activity at 1 µM is 119%, the activity at 5 µM was determined as 90% and the activity at 10 µM came out at 67.7%. For the same molecule, in data set [2], the activity at 1 µM turned out to be 93.2%, the activity at 5 µM was 59.8% and the activity at 10 µM was 72.2%.
Regarding `COc1cc(/C=N/c2cccc3c(/N=C/c4ccc(O)c(OC)c4)cccc23)ccc1O` [CBK261224], in the data set “in vitro”, the viability at 28.5 h, 1 µM stood at 89.7%; the viability at 28.5 h, 5 µM is 86.7%; the viability at 28.5 h, 10 µM came out at 81.8%. For the same molecule, in data set [1], the activity at 1 µM was determined as 120%, the activity at 5 µM was 67.3% and the activity at 10 µM amounted to 44%. Further, in data set [2], the activity at 1 µM is 114%, the activity at 5 µM was 68% and the activity at 10 µM was determined as 40.8%.
In the case of `Cc1ccc(OCC(O)CN2CCN(c3nc(-c4ccccc4)ns3)CC2)c([N+](=O)[O-])c1` (stereo not drawn) [CBK074696], in “in vitro”, the viability at 28.5 h, 1 µM stood at 104%; the viability at 28.5 h, 5 µM stood at 99.5%; the viability at 28.5 h, 10 µM came to 102%. Also, in data set [1], the activity at 1 µM turned out to be 147%, the activity at 5 µM turned out to be 120% and the activity at 10 µM was 133%. Further, in data set [2], the activity at 1 µM amounted to 113%, the activity at 5 µM stood at 55.9% and the activity at 10 µM was 68.2%.
Regarding `COc1ccc(CCN(CCc2ccccc2)CC(O)COc2cccc3c2CCCC3)cc1` (stereo not drawn) [CBK024506T], in the data set “in vitro”, the viability at 28.5 h, 1 µM amounted to 97.4%; the viability at 28.5 h, 5 µM is 95.2%; the viability at 28.5 h, 10 µM worked out at 101%. Besides, in data set [1], the activity at 1 µM was 108%, the activity at 5 µM turned out to be 104% and the activity at 10 µM turned out to be 51%. In addition, in data set [2], the activity at 1 µM stood at 99%, the activity at 5 µM was 114% and the activity at 10 µM turned out to be 55.3%.
`N#CC(CCCN1CCN(c2ccccc2)CC1)(c1ccccc1)c1ccccc1` [CBK002243C]: in “in vitro”, the viability at 28.5 h, 1 µM came out at 99.6%; the viability at 28.5 h, 5 µM worked out at 105%; the viability at 28.5 h, 10 µM is 118%. Moreover, in data set [1], the activity at 1 µM turned out to be 106%, the activity at 5 µM was 74% and the activity at 10 µM was determined as 41.5%. For the same molecule, in data set [2], the activity at 1 µM was 42.5%, the activity at 5 µM is 23.5% and the activity at 10 µM was 17.3%.
As for `O=C(Nc1ncc(-c2ccccc2)s1)c1cccc([N+](=O)[O-])c1` [CBK157055], in “in vitro”, the viability at 28.5 h, 1 µM was 114%; the viability at 28.5 h, 5 µM was 102%; the viability at 28.5 h, 10 µM came to 114%. Moreover, in data set [1], the activity at 1 µM turned out to be 110%, the activity at 5 µM amounted to 86.9% and the activity at 10 µM is 76.9%. Moreover, in data set [2], the activity at 1 µM stood at 86.4%, the activity at 5 µM amounted to 88.1% and the activity at 10 µM turned out to be 56.9%.
With `CCCCc1ccc(NC(=N)Nc2nc(C)cc(C)n2)cc1` [CBK262967], in the data set “in vitro”, the viability at 28.5 h, 1 µM was 90.3%; the viability at 28.5 h, 5 µM came to 95.4%; the viability at 28.5 h, 10 µM was found to be 90%. Further, in data set [1], the activity at 1 µM was 89.4%, the activity at 5 µM was determined as 33.4% and the activity at 10 µM was 22%. Moreover, in data set [2], the activity at 1 µM is 75.4%, the activity at 5 µM was 38.5% and the activity at 10 µM worked out at 9.61%.
As for `COc1ccc(OC)c(Nc2nc(NCC3CCCO3)c3ccccc3n2)c1` (stereo not drawn) [CBK268403C], in “in vitro”, the viability at 28.5 h, 1 µM worked out at 97.5%; the viability at 28.5 h, 5 µM was determined as 96.9%; the viability at 28.5 h, 10 µM was determined as 99.1%. For the same molecule, in data set [1], the activity at 1 µM turned out to be 127%, the activity at 5 µM was 105% and the activity at 10 µM worked out at 26.6%. Further, in data set [2], the activity at 1 µM was found to be 73.4%, the activity at 5 µM is 61% and the activity at 10 µM was 10.2%.
On to `c1ccc(CNc2nnc(-c3ccccc3)s2)cc1` [CBK074928], for which, in the data set “in vitro”, the viability at 28.5 h, 1 µM amounted to 95%; the viability at 28.5 h, 5 µM is 91.9%; the viability at 28.5 h, 10 µM came to 104%. In data set [1], the activity at 1 µM is 92.7%, the activity at 5 µM is 77.6% and the activity at 10 µM was found to be 65.1%. For the same molecule, in data set [2], the activity at 1 µM is 68.4%, the activity at 5 µM was 34.4% and the activity at 10 µM turned out to be 26.9%.
As to `CC(C(=O)N1CCC2(CC1)NC(=O)c1ccccc1N2)(c1ccccc1)c1ccccc1` [CBK286308], in “in vitro”, the viability at 28.5 h, 1 µM stood at 97.7%; the viability at 28.5 h, 5 µM turned out to be 93.1%; the viability at 28.5 h, 10 µM is 101%. Besides, in data set [1], the activity at 1 µM came out at 96.5%, the activity at 5 µM came to 59.6% and the activity at 10 µM was found to be 46.3%. Also, in data set [2], the activity at 1 µM worked out at 82.6%, the activity at 5 µM stood at 44.9% and the activity at 10 µM worked out at 28.3%.
`COc1ccccc1N/C(=N\OCc1ccc(Cl)cc1Cl)c1nonc1N` [CBK018391]: in the data set “in vitro”, the viability at 28.5 h, 1 µM is 90.7%; the viability at 28.5 h, 5 µM came to 92.4%; the viability at 28.5 h, 10 µM worked out at 94.7%. Also, in data set [1], the activity at 1 µM is 137%, the activity at 5 µM amounted to 122% and the activity at 10 µM is 103%. Further, in data set [2], the activity at 1 µM was 89.5%, the activity at 5 µM is 84% and the activity at 10 µM stood at 56.1%.
Turning to `CN(C)CCCNC(=O)c1ccc([N+](=O)[O-])o1` [CBK262118], in “in vitro”, the viability at 28.5 h, 1 µM is 97.2%; the viability at 28.5 h, 5 µM was determined as 98.6%; the viability at 28.5 h, 10 µM is 104%. Also, in data set [1], the activity at 1 µM amounted to 133%, the activity at 5 µM was 80.5% and the activity at 10 µM was determined as 42.1%. In data set [2], the activity at 1 µM was 104%, the activity at 5 µM amounted to 60.7% and the activity at 10 µM stood at 34.6%.
For the molecule `Cc1nn(C)c(N2CCN(C(=O)OC(C)(C)C)CC2)c1N` [CBK034182], in the data set “in vitro”, the viability at 28.5 h, 1 µM worked out at 90.6%; the viability at 28.5 h, 5 µM is 94.8%; the viability at 28.5 h, 10 µM amounted to 88.5%. Moreover, in data set [1], the activity at 1 µM is 120%, the activity at 5 µM is 91.7% and the activity at 10 µM stood at 38.1%. Also, in data set [2], the activity at 1 µM was 122%, the activity at 5 µM stood at 92% and the activity at 10 µM stood at 53.1%.
In the case of `CCCCC(=O)/N=C(\N)Nc1nc2ccccc2o1` [CBK287937], in “in vitro”, the viability at 28.5 h, 1 µM was 106%; the viability at 28.5 h, 5 µM was determined as 102%; the viability at 28.5 h, 10 µM worked out at 100%. In data set [1], the activity at 1 µM was found to be 119%, the activity at 5 µM came to 117% and the activity at 10 µM was found to be 117%. In addition, in data set [2], the activity at 1 µM worked out at 100%, the activity at 5 µM is 71.1% and the activity at 10 µM is 60.6%.
For `CCc1nnc(NS(=O)(=O)c2ccc(NC(=S)NC(=O)c3ccco3)cc2)s1` [CBK018917], in the data set “in vitro”, the viability at 28.5 h, 1 µM came to 100%; the viability at 28.5 h, 5 µM amounted to 94.7%; the viability at 28.5 h, 10 µM came to 115%. In addition, in data set [1], the activity at 1 µM came out at 117%, the activity at 5 µM is 56.1% and the activity at 10 µM amounted to 18.8%. In data set [2], the activity at 1 µM was 79.7%, the activity at 5 µM was 57% and the activity at 10 µM is 24.2%.
Turning to `OCCNc1nc(Nc2ccc(Br)cc2)nc2ccccc12` [CBK266724C], in the data set “in vitro”, the viability at 28.5 h, 1 µM stood at 122%; the viability at 28.5 h, 5 µM came to 116%; the viability at 28.5 h, 10 µM came out at 121%. Also, in data set [1], the activity at 1 µM worked out at 69.3%, the activity at 5 µM was found to be 0.15% and the activity at 10 µM amounted to 0%. Besides, in data set [2], the activity at 1 µM was 59.5%, the activity at 5 µM turned out to be 2.92% and the activity at 10 µM was found to be 0.726%.
Turning to `CN(C(=O)Cc1ccsc1)c1nc2c(s1)CCc1c-2cnn1C` [CBK281929], in the data set “in vitro”, the viability at 28.5 h, 1 µM is 103%; the viability at 28.5 h, 5 µM was determined as 96%; the viability at 28.5 h, 10 µM came to 93.3%. In addition, in data set [1], the activity at 1 µM is 104%, the activity at 5 µM worked out at 56.8% and the activity at 10 µM was 29.8%. In data set [2], the activity at 1 µM was determined as 85.4%, the activity at 5 µM was determined as 28.7% and the activity at 10 µM was found to be 14.3%.
